Results published in patent US5597823A, “Tricyclic substituted hexahydrobenz [e]isoindole alpha-1 adrenergic antagonists” (priority 1995, dated 1997).
Structures can show the parent of a compound that is named as a salt. Blank lines part the entries; values can stand above or below the molecule they belong to.

Experiments:
Format in all cases: cell-based
[1] = target: T1, α-1A adrenoceptor (rat vas deferens) (Rattus norvegicus, UniProt P43140); assay: Functional antagonism: phenylephrine (PE)-induced contraction of rat vas deferens; settings: vs phenylephrine, Schild plot; for Kb: read-out: pA2 Rat Vas Deferens [α-1A] (converted)
T1 construct: PE-induced contraction of rat vas deferens; from tissue; host or cells: rat vas deferens
T1 sequence (P43140 1-466): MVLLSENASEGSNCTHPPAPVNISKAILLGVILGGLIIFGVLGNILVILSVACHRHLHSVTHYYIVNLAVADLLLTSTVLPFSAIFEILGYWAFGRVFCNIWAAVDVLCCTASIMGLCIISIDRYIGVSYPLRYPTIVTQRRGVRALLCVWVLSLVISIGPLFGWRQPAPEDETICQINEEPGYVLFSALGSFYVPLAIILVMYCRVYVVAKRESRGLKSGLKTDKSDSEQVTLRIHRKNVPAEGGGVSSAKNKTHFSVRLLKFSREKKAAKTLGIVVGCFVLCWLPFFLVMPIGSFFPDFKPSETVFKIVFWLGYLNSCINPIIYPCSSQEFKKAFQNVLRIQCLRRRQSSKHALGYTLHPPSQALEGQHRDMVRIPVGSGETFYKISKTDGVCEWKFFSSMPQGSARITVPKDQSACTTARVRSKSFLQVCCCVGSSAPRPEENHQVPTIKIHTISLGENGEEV
Text: (§1) Functional assays indicative of pharmacologically defined α-1 adrenoceptors were used to further characterize compounds. Inhibition of phenylephrine (PE)-induced contraction of canine prostate smooth muscle can be correlated with α-1A adrenoceptor activation. […] For each of these models, agonist dose response curves were repeated against increasing concentrations of test agent to derive a Schild plot [log ([…]) against log (molarity of test agent)] to determine the pA2.

[2] = target: T2, α-1B adrenoceptor (rat spleen) (Rattus norvegicus, UniProt P15823); assay: Functional antagonism: phenylephrine (PE)-induced contraction of rat spleen; settings: for pA2 Rat Spleen [α-1B] / Kb: vs phenylephrine, Schild plot; for Kb: read-out: pA2 Rat Spleen [α-1B] (converted)
T2 construct: PE-induced contraction of rat spleen; from tissue; host or cells: rat spleen
T2 sequence (P15823 1-515): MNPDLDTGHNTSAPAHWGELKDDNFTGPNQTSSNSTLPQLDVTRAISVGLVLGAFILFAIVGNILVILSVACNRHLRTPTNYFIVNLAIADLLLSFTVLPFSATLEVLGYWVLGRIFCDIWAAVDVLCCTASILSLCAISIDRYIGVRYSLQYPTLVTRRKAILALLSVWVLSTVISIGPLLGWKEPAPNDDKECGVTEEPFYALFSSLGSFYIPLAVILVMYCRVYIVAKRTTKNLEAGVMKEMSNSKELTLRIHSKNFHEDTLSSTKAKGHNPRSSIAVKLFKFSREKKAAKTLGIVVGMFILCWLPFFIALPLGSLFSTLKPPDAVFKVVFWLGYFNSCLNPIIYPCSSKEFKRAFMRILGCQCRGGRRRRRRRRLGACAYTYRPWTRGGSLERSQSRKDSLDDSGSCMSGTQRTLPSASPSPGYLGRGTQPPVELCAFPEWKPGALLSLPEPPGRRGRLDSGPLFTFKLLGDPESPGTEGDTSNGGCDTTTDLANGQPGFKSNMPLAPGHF
Text: as §1

[3] = target: T3, α-1A adrenoceptor (dog prostate) (Canis lupus, UniProt A0A8I3NK63); assay: Functional antagonism: phenylephrine (PE)-induced contraction of canine prostate strips; settings: vs phenylephrine, Schild plot
T3 sequence (A0A8I3NK63 1-466): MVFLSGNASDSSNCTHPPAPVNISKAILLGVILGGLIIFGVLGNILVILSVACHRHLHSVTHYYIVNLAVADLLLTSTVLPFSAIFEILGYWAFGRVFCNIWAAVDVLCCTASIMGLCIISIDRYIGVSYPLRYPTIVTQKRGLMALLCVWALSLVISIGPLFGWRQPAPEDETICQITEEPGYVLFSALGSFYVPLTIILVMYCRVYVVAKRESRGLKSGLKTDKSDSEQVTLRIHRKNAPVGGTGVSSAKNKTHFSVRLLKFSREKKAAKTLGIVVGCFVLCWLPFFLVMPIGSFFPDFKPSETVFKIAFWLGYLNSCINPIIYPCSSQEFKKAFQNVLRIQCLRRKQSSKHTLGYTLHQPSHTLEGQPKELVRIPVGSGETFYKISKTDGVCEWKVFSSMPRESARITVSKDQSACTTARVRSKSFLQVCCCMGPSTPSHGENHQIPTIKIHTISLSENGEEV
Text: as §1
Canine prostate strips were used in vitro as previously described (Hieble, J. P., Boyce, A. J. and Caine, M., Fed. Proc., 45:2609-2614 (1986)), to determine antagonist potencies against phenylephrine-induced contractions.

Kb [1]: 20 nM
Kb [2]: 37.2 nM
pA2 Dog Prostate [α-1A] ([3]; Table 2a): 9.22
Compound: COc1cccc2c1CC[C@H]1CN(CCn3c(=O)[nH]c4c(sc5ccc(O)nc54)c3=O)C[C@@H]21 [Example 107, dihydrochloride]

Kb [1]: 0.724 nM
Kb [2]: 21.9 nM
pA2 Dog Prostate [α-1A] ([3]; Table 2a): 9.24
Compound: COc1cccc2c1CC[C@H]1CN(CCn3c(=O)[nH]c4c(sc5ccc(Cl)nc54)c3=O)C[C@@H]21 [Example 62, dihydrochloride]

Kb [1]: 4.27 nM
Kb [2]: 21.4 nM
pA2 Dog Prostate [α-1A] ([3]; Table 2a): 8.74
Compound: COc1cccc2c1CC[C@H]1CN(CCn3c(=O)[nH]c4c(sc5ccccc54)c3=O)C[C@@H]21 (relative stereo) [Example 1, hydrochloride]

pA2 Dog Prostate [α-1A] ([3]; Table 2b): 7.8
Compound: COc1cccc2c1CC[C@@H]1CN(CCn3c(=O)[nH]c4c(sc5cccnc54)c3=O)C[C@H]21 [Example 78, dihydrochloride]

pA2 Dog Prostate [α-1A] ([3]; Table 2b): 8.42
Compound: COc1cccc2c1CC[C@H]1CN(CCn3c(=O)[nH]c4c(sc5cccc(OC)c54)c3=O)C[C@@H]21 [Example 73, 3-[2-((3aR,9bR)-cis-6-Methoxy-2,3,3a,4,5,9b-hexahydro-[1H]-benz[e]isoindol-1-yl)ethyl]-[1]-9-methoxy-benzothieno[3,2-d]pyrimidine-2,4(1H,3H)-dione hydrochloride]

pA2 Dog Prostate [α-1A] ([3]; Table 2b): 9.48
Compound: COc1cccc2c1CC[C@H]1CN(CCn3c(=O)[nH]c4c(sc5ccc(C(=O)N(C)C)cc54)c3=O)C[C@@H]21 [Example 45, hydrochloride]

pA2 Dog Prostate [α-1A] ([3]; Table 2b): 7.43
Compound: COc1cccc2c1CC[C@H]1CN(CCn3c(=O)[nH]c4c(sc5cc(Cl)ccc54)c3=O)C[C@@H]21 [Example 57, 3-[2-((3aR,9bR)-cis-6-Methoxy-2,3,3a,4,5,9b-hexahydro-[1H]-benz[e]isoindol-1-yl)ethyl]-[1]-7-chloro-benzothieno[3,2-d]pyrimidine-2,4(1H,3H)-dione hydrochloride]

pA2 Dog Prostate [α-1A] ([3]; Table 2b): 8.75
Compound: COc1cccc2c1CC[C@H]1CN(CCn3c(=O)[nH]c4c(sc5c(OC)ccnc54)c3=O)C[C@@H]21 [Example 65, dihydrochloride]

pA2 Dog Prostate [α-1A] ([3]; Table 2b): 9.61
Compound: COc1cccc2c1CC[C@H]1CN(CCn3c(=O)[nH]c4c(sc5ccc(C(N)=O)cc54)c3=O)C[C@@H]21 [Example 46, 3-[2-((3aR,9bR)-cis-6-Methoxy-2,3,3a.4,5,9b-hexahydro-[1H]-benz[e]isoindol-1-yl)ethyl]-[1]-8-carboxamido-benzothieno[3,2-d]pyrimidine-2,4(1H,3H)-dionehydrochloride]

Second part, the molecule before the results:

Compound: COc1cccc2c1CC[C@H]1CN(CCn3c(=O)[nH]c4c(sc5nccnc54)c3=O)C[C@@H]21 [Example 39]
pA2 Rat Vas Deferens [α-1A] [1]: 8.33
pA2 Rat Spleen [α-1B] [2]: 7.76
pA2 Dog Prostate [α-1A] ([3]; Table 2a): 9.16

Compound: COc1cccc2c1CC[C@H]1CN(CCn3c(=O)c4sc5ccccc5c4n(C)c3=O)C[C@@H]21 (relative stereo) [Example 11, hydrochloride]
Kb [1]: 2.82 nM
Kb [2]: 51.3 nM
pA2 Dog Prostate [α-1A] ([3]; Table 2a): 8.57

Compound: O=c1[nH]c2c(sc3cccnc32)c(=O)n1CCN1C[C@@H]2CCc3c(ccc4c3OCO4)[C@@H]2C1 (relative stereo) [Example 112, dihydrochloride]
pA2 Rat Vas Deferens [α-1A] [1]: 7.92
pA2 Rat Spleen [α-1B] [2]: 7.2
pA2 Dog Prostate [α-1A] ([3]; Table 2a): 8.18

Compound: COc1cnc2c(n1)sc1c(=O)n(CCN3C[C@@H]4CCc5c(OC)cccc5[C@@H]4C3)c(=O)[nH]c12 [Example 89, hydrochloride]
Kb [1]: 1.17 nM
Kb [2]: 7.76 nM
pA2 Dog Prostate [α-1A] ([3]; Table 2a): 9.03

Compound: COc1cc2nc(N3CCN(C(=O)C4COc5ccccc5O4)CC3)nc(N)c2cc1OC (stereo not drawn) [doxazosin, reference compound]
more potent effect on spleen smooth muscle ([2]; PE-induced contraction, pA2 models compared): more potent effect on spleen smooth muscle by approximately an order of magnitude

Compound: COc1cccc2c1CC[C@H]1CN(CCn3c(=O)c4sc5nccnc5c4n(C(C)C)c3=O)C[C@@H]21 [Example 90, hydrochloride]
Kb [1]: 1.45 nM
Kb [2]: 26.9 nM
pA2 Dog Prostate [α-1A] ([3]; Table 2a): 9.05

Compound: COc1cccc2c1CC[C@H]1CN(CCn3c(=O)[nH]c4sc5c(c4c3=O)CCCC5)C[C@@H]21 (relative stereo) [Example 7, 3-[2-(cis-6-Methoxy-2,3,3a4,5,9b-hexahydro-[1H]-benz[e]isoindol-1-yl)ethyl]-[1]-5,6,7,8-tetrahydrobenzothieno[2,3-d]pyrimidine-2,4(1H,3H)-dione hydrochloride]
pA2 Dog Prostate [α-1A] ([3]; Table 2b): 7.85

Compound: CCCCn1c(=O)n(CCN2C[C@@H]3CCc4c(OC)cccc4[C@@H]3C2)c(=O)c2sc3nccnc3c21 [Example 101, hydrochloride]
pA2 Dog Prostate [α-1A] ([3]; Table 2b): 7.31

Compound: COc1cccc2c1CC[C@H]1CN(CCn3c(=O)[nH]c4c(sc5ncc(-c6ccccc6)nc54)c3=O)C[C@@H]21 [Example 99, hydrochloride]
pA2 Dog Prostate [α-1A] ([3]; Table 2b): 7.92

Compound: CCc1cccc2c1CC[C@H]1CN(CCn3c(=O)[nH]c4c(sc5cccnc54)c3=O)C[C@@H]21 [Example 113, dihydrochloride]
pA2 Dog Prostate [α-1A] ([3]; Table 2b): 8.22

Compound: COc1cccc2c1CC[C@H]1CN(CCn3c(-c4ccccc4)nc4c(sc5ccccc54)c3=O)C[C@@H]21 (relative stereo) [Example 30, 3-[2-(cis-6-Methoxy-2 3 3a,4,5,9b-hexahydro-[1H]-benz[e]isoindol-1-yl)ethyl]-2-phenyl-[1]benzothieno[3,2-d]-4(1H,3H)-one hydrochloride]
pA2 Dog Prostate [α-1A] ([3]; Table 2b): 7.06

Compound: COc1cccc2c1CC[C@H]1CN(CCn3c(=O)[nH]c4c(sc5cncnc54)c3=O)C[C@@H]21 [Example 41]
pA2 Dog Prostate [α-1A] ([3]; Table 2b): 9.03

Compound: COc1cccc2c1CC[C@H]1CN(CCn3cnc4c(sc5nccnc54)c3=O)C[C@@H]21 [Example 71, 3-[2-(cis-(3.aR,9bR)-6-Methoxy-2,3 .,3a,4,5,9b-hexahydro-[1H]-benz[e]isoindol-1-yl)ethyl]-pyrazino[2',3':4,5]thieno[3,2-d]pyrimidine-4(1H,3H)-one hydrochloride]
pA2 Dog Prostate [α-1A] ([3]; Table 2b): 9.21

Compound: COc1cccc2c1CC[C@H]1CN(CCn3c(=O)[nH]c4c(ccc5cccnc54)c3=O)C[C@@H]21 [Example 83, hydrochloride]
pA2 Dog Prostate [α-1A] ([3]; Table 2b): 8.43

Compound: O=c1[nH]c2c(sc3ncccc32)c(=O)n1CCN1C[C@@H]2CCc3c(ccc4c3OCO4)[C@@H]2C1 (relative stereo) [Example 111, hydrochloride]
pA2 Dog Prostate [α-1A] ([3]; Table 2b): 8.00

Compound: COc1cccc2c1CC[C@H]1CN(CCn3c(=O)[nH]c4c(sc5nc(C)cnc54)c3=O)C[C@@H]21 [Example 92, hydrochloride]
pA2 Dog Prostate [α-1A] ([3]; Table 2b): 9.1

Compound: COCCn1c(=O)n(CCN2C[C@@H]3CCc4c(OC)cccc4[C@@H]3C2)c(=O)c2sc3cccnc3c21 [Example 105, hydrochloride]
pA2 Dog Prostate [α-1A] ([3]; Table 2b): 8.58
